According to patent publication US7517874B2 (priority 2007, dated 2009):
Structures can show the parent of a compound that is named as a salt. Where two headings read alike, the source gives them in different places.

How the values were obtained:
rat CB2 receptor (rCB2) = target: T1, rat CB2 receptor (rCB2) (Rattus norvegicus, UniProt Q9QZN9); assay: cell-based; type: cell-based; details: for +/− RCB2: agonist or inverse agonist at rCB2; for EC50: groups >100 nM-10 μM and >10 μM, cAMP, CHO-K1 rCB2, read-out: EC50 RCB2
T1 sequence (Q9QZN9 1-360): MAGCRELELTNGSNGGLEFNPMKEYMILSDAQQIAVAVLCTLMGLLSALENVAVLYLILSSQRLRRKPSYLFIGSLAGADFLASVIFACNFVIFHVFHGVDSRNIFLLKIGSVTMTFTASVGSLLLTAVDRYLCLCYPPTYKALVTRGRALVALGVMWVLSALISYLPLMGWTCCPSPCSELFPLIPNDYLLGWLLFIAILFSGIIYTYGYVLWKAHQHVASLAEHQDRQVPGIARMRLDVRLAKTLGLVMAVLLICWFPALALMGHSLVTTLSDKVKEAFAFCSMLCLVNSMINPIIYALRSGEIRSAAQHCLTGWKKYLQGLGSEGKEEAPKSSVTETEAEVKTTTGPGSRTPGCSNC
Procedure: (§1) The ability of compounds to act as agonists or inverse agonists at human CB2 and CB1 receptors (hCB2, hCB1, respectively) and at the rat CB2 receptor (rCB2) was determined by measuring changes in intracellular cAMP levels. Chinese Hamster Ovary (CHO-K1) cell lines stably expressing hCB2 (Genebank: X74328) or hCB1 (Genebank: X54937) were purchased from Euroscreen (Gosselies, Belgium). The rat CB2 receptor was expressed from genomic DNA (provided by M. Abood, California Pacific Medical Center) in CHO-K1 cells from expression plasmid vector, pcDNA3.1.
(§2) Cell lines were grown in suspension in EX-CELL 302 CHO Serum-free medium (Sigma, cat #14324C) supplemented with 1% Fetal Bovine Serum, glutamine and non-essential amino-acids under 0.4 mg/mL G418 selection.
(§3) Receptor mediated responses were determined by measuring changes in intracellular cAMP using LANCE cAMP detection kit (cat #AD0264, Perkin Elmer, Wellesley, Mass.) based on time-resolved fluorescence resonance energy transfer (TR-FRET). Changes in cAMP were determined in cells pre-incubated with IBMX (isobutyl methylxanthine) and prestimulated with NKH-477 (a water soluble forskolin derivative, cat #1603, Tocris, Ellisville, Mo.) to increase basal cAMP levels as detailed below.
(§4) On the day of the experiment, cells were spun at low speed for 5 min at room temperature. The supernatant was removed and cells were resuspended in stimulation buffer (Hanks Buffered Salt Solution/5 mM HEPES, containing 0.5 mM IBMX (cat #17018, Sigma) and 0.02% BSA (Perkin-Elmer, cat #CR84-100)). Cell clumps were removed by filtering through cell strainer 40 μm (BD Falcon, Discovery Labware, Bedford, Mass.) and diluted to 2×10^5 cells/mL. Antibody supplied with the LANCE cAMP immunoassay kit was then added according to the manufacturer's instructions. An aliquot of cells was taken for un-induced controls. To the remaining cells was added NKH-477 (a water soluble forskolin derivative, Tocris cat #1603) to a final concentration of 2-8 μM. Cells were then incubated for 30 min at room temperature prior to adding to Proxiplates containing test compounds (final DMSO concentration was less than 0.5%) with a Multidrop bulk dispenser, followed by a sixty minute incubation at room temperature. The response was stopped by addition of the detection mix supplied with the LANCE kit. The reagents were allowed to equilibrate for three hours prior to reading on an Envision multi-mode detector (Perkin-Elmer). TR-FRET was measured using a 330-380 nm excitation filter, a 665 nm emission filter, dichroic mirror 380 nm and Z=1 mm. Cyclic AMP concentrations in each well were back-calculated from a cAMP standard curve run concurrently during each assay. Each plate contained 16 wells of forskolin stimulated cells and 16 wells of forskolin plus CP55,940-treated cells. Cells were treated with 1 μM CP55,940 (Tocris cat. #0949). Concentrations of cAMP were expressed as a percent of the difference of these two groups of wells. Concentration-response data including EC50 (the concentration of compound producing 50% of the maximal response) and intrinsic activity (the percent maximal activation compared to full activation by CP55,940) were determined using a four-parameter non-linear regression algorithm (Xlfit equation 251, IDBS).

[1] = target: human CB1 receptor (hCB1) (Homo sapiens, UniProt P21554); assay: cell-based; type: cell-based
Procedure: as §1, §2, §3, §4

[2] = groups >100 nM-10 μM and >10 μM, cAMP, CHO-K1 hCB1, read-out: EC50 HCB1

Chain of human CB1 receptor (hCB1) (P21554 whole entry): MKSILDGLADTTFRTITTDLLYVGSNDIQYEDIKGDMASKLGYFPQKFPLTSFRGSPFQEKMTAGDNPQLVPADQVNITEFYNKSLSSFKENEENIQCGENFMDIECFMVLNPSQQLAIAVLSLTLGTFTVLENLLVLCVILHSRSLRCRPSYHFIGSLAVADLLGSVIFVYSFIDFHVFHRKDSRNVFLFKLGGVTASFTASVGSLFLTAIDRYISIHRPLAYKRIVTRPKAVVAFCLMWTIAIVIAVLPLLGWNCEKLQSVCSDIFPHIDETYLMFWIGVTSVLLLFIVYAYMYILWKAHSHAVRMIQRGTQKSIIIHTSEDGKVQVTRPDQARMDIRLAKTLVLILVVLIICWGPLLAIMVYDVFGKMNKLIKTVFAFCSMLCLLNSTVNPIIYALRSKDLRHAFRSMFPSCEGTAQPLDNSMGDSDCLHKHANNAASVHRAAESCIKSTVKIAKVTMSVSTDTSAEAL

| SMILES | +/− RCB2 (rat CB2 receptor (rCB2)) | EC50 [1, 2] [nM] | EC50 [1] [nM] | EC50 (rat CB2 receptor (rCB2)) [nM] |
| --- | --- | --- | --- | --- |
| CC(C)(CO)CNC(=O)c1nc(-c2ccccc2)n2c1CNCC2 [Compound 29, N-(3-hydroxy-2,2-dimethylpropyl)-3-phenyl-5,6,7,8-tetrahydroimidazo[1,5-a]pyrazine-1-carboxamide] | − | > 10000 |  |  |
| CC(C)(C)OC(=O)N1CCn2c(-c3ccccc3)nc(C(=O)NC3C4(C)CCC(C4)C3(C)C)c2C1 (stereo not shown) [Compound 30, tert-butyl 3-phenyl-1-(1,3,3-trimethylbicyclo[2.2.1]heptan-2-ylcarbamoyl)-5,6-dihydroimidazo[1,5-a]pyrazine-7(8H)-carboxylate] | − |  | > 10000 |  |
| C[C@H](NC(=O)c1nc(-c2ccccc2)n2c1CN(C(=O)OC(C)(C)C)CC2)c1ccccc1 [Compound 31, (S)-tert-butyl 3-phenyl-1-(1-phenylethylcarbamoyl)-5,6-dihydroimidazo[1,5-a]pyrazine-7(8H)-carboxylate] | − | > 10000 |  |  |
| CC(C)(C)OC(=O)N1CCn2c(-c3ccccc3)nc(C(=O)Nc3ccccc3)c2C1 [Compound 32, tert-butyl 3-phenyl-1-(phenylcarbamoyl)-5,6-dihydroimidazo[1,5-a]pyrazine-7(8H)-carboxylate] | − |  | > 10000 |  |
| CC(C)CCNC(=O)c1nc(-c2ccc(Cl)cc2)n2c1CN(C(=O)OC(C)(C)C)CC2 [Compound 33, tert-butyl 3-(4-chlorophenyl)-1-(isopentylcarbamoyl)-5,6-dihydroimidazo[1,5-a]pyrazine-7(8H)-carboxylate] | − | > 10000 |  |  |
| CC(C)(C)OC(=O)N1CCn2c(-c3ccc(Cl)cc3)nc(C(=O)N[C@H](CO)C(C)(C)C)c2C1 [Compound 34, (S)-tert-butyl 3-(4-chlorophenyl)-1-(1-hydroxy-3,3-dimethylbutan-2-ylcarbamoyl)-5,6-dihydroimidazo[1,5-a]pyrazine-7(8H)-carboxylate] | − |  | > 10000 |  |
| CC(C)(C)OC(=O)N1CCn2c(-c3ccccc3)nc(C(=O)NN3CCCCC3)c2C1 [Compound 35, tert-butyl 3-phenyl-1-(piperidin-1-ylcarbamoyl)-5,6-dihydroimidazo[1,5-a]pyrazine-7(8H)-carboxylate] | − | > 10000 |  |  |
| CC(C)(C)OC(=O)N1CCn2c(-c3ccccc3)nc(C(=O)NC3CCCCC3)c2C1 [Compound 36, tert-butyl 1-(cyclohexylcarbamoyl)-3-phenyl-5,6-dihydroimidazo[1,5-a]pyrazine-7(8H)-carboxylate] | − |  | > 10000 |  |
| C[C@@H](NC(=O)c1nc(-c2ccccc2)n2c1CN(C(=O)OC(C)(C)C)CC2)C1CCCCC1 [Compound 37, (R)-tert-butyl 1-(1-cyclohexylethylcarbamoyl)-3-phenyl-5,6-dihydroimidazo[1,5-a]pyrazine-7(8H)-carboxylate] | − |  | > 10000 |  |
| CC(C)(C)OC(=O)N1CCn2c(-c3ccccc3)nc(C(=O)NCC3CCOCC3)c2C1 [Compound 38, tert-butyl 3-phenyl-1-((tetrahydro-2H-pyran-4-yl)methylcarbamoyl)-5,6-dihydroimidazo[1,5-a]pyrazine-7(8H)-carboxylate] | − | > 10000 |  |  |
| CC12CCC(C1)C(C)(C)C2NC(=O)c1nc(-c2ccccc2)n2c1CNCC2 (stereo not shown) [Compound 39, 3-Phenyl-N-(1,3,3-trimethylbicyclo[2.2.1]heptan-2-yl)-5,6,7,8-tetrahydro-imidazo[1,5-a]pyrazine-1-carboxamide HCl] | + |  | > 10000 |  |
| C[C@H](NC(=O)c1nc(-c2ccccc2)n2c1CNCC2)c1ccccc1 [Compound 40, (S)-3-phenyl-N-(1-phenylethyl)-5,6,7,8-tetrahydroimidazo[1,5-a]pyrazine-1-carboxamide] | + |  | > 10000 |  |
| O=C(Nc1ccccc1)c1nc(-c2ccccc2)n2c1CNCC2 [Compound 41, N,3-diphenyl-5,6,7,8-tetrahydroimidazo[1,5-a]pyrazine-1-carboxamide] |  | > 10000 |  | > 10000 |
| CC(C)CCNC(=O)c1nc(-c2ccc(Cl)cc2)n2c1CNCC2 [Compound 42, 3-(4-chlorophenyl)-N-isopentyl-5,6,7,8-tetrahydroimidazo[1,5-a]pyrazine-1-carboxamide] | − | > 10000 |  |  |
| CC(C)(C)[C@@H](CO)NC(=O)c1nc(-c2ccc(Cl)cc2)n2c1CNCC2 [Compound 43, (S)-3-(4-chlorophenyl)-N-(1-hydroxy-3,3-dimethylbutan-2-yl)-5,6,7,8-tetrahydroimidazo[1,5-a]pyrazine-1-carboxamide] | − |  | > 10000 |  |
| O=C(NN1CCCCC1)c1nc(-c2ccccc2)n2c1CNCC2 [Compound 44, 3-phenyl-N-(piperidin-1-yl)-5,6,7,8-tetrahydroimidazo[1,5-a]pyrazine-1-carboxamide] | − |  | > 10000 |  |
| C[C@@H](NC(=O)c1nc(-c2ccccc2)n2c1CNCC2)C1CCCCC1 [Compound 45, (R)-N-(1-cyclohexylethyl)-3-phenyl-5,6,7,8-tetrahydroimidazo[1,5-a]pyrazine-1-carboxamide] | − | > 10000 |  |  |
| O=C(NCC1CCOCC1)c1nc(-c2ccccc2)n2c1CNCC2 [Compound 46, 3-phenyl-N-((tetrahydro-2H-pyran-4-yl)methyl)-5,6,7,8-tetrahydroimidazo[1,5-a]pyrazine-1-carboxamide] | − | > 10000 |  |  |
| O=C(NC1CCCCC1)c1nc(-c2ccccc2)n2c1CNCC2 [Compound 47, N-cyclohexyl-3-phenyl-5,6,7,8-tetrahydroimidazo[1,5-a]pyrazine-1-carboxamide] |  | > 10000 |  | > 10000 |
| CNC(=O)[C@@H](NC(=O)c1nc(-c2ccccc2)n2c1CN(C)CC2)C(C)(C)C [Compound 48, (S)-N-(3,3-dimethyl-1-(methylamino)-1-oxobutan-2-yl)-7-methyl-3-phenyl-5,6,7,8-tetrahydroimidazo[1,5-a]pyrazine-1-carboxamide] | + |  | > 10000 |  |
| CNC(=O)[C@@H](NC(=O)c1nc(-c2ccc(Cl)cc2)n2c1CN(C)CC2)C(C)(C)C [Compound 49, (S)-3-(4-chlorophenyl)-N-(3,3-dimethyl-1-(methylamino)-1-oxobutan-2-yl)-7-methyl-5,6,7,8-tetrahydroimidazo[1,5-a]pyrazine-1-carboxamide] | − |  | > 10000 |  |
| C[C@@H](NC(=O)c1nc(-c2ccccc2)n2c1CN(C)CC2)C(C)(C)C [Compound 50, (R)-N-(3,3-dimethylbutan-2-yl)-7-methyl-3-phenyl-5,6,7,8-tetrahydroimidazo[1,5-a]pyrazine-1-carboxamide] |  | > 10000 |  | > 10000 |
| C[C@H](NC(=O)c1nc(-c2ccccc2)n2c1CN(C)CC2)C(C)(C)C [Compound 51, (S)-N-(3,3-dimethylbutan-2-yl)-7-methyl-3-phenyl-5,6,7,8-tetrahydroimidazo[1,5-a]pyrazine-1-carboxamide] |  | > 10000 |  | > 10000 |
